Data published in PubChem BioAssay AID2060496 (Molecular Pharmacology Branch, DTP, NCI, 2025).
pIC50: −log10 of the molar value.

Tested on: 276233-004-R-J1-PDC complex spheroid viability
Assay: Anticancer human tumor 276233-004-R-J1-PDC patient-derived colon adenocarcinoma cell line growth inhibition [GQUAD]
Settings: for pIC50: curve of first compound; for viability, T/C: stronger effect = lower value
How it was run: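 Multi-cell-type spheroids of tumor cells with HUVEC and mesenchymal stem cells, treated with drug combinations. Concentrations descend in half-log steps from near clinical Cmax, or from 10 microM where Cmax is unknown; viability read-out.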

[1] = second compound 0.0316 µM, first compound 0.0316 µM
[2] = second compound 0.0316 µM, first compound 0.1 µM
[3] = second compound 0.0316 µM, first compound 0.316 µM
[4] = second compound 0.0316 µM, first compound 1 µM
[5] = second compound 0.0316 µM, first compound 3.16 µM
[6] = second compound 0.0316 µM, first compound 10 µM
[7] = second compound 0.1 µM, first compound 0.0316 µM
[8] = second compound 0.1 µM, first compound 0.1 µM
[9] = second compound 0.1 µM, first compound 0.316 µM
[10] = second compound 0.1 µM, first compound 1 µM
[11] = second compound 0.1 µM, first compound 3.16 µM
[12] = second compound 0.1 µM, first compound 10 µM
[13] = second compound 0.316 µM, first compound 0.0316 µM
[14] = second compound 0.316 µM, first compound 0.1 µM
[15] = second compound 0.316 µM, first compound 0.316 µM
[16] = second compound 0.316 µM, first compound 1 µM
[17] = second compound 0.316 µM, first compound 3.16 µM
[18] = second compound 0.316 µM, first compound 10 µM
[19] = second compound 1 µM, first compound 0.0316 µM
[20] = second compound 1 µM, first compound 0.1 µM
[21] = second compound 1 µM, first compound 0.316 µM
[22] = second compound 1 µM, first compound 1 µM
[23] = second compound 1 µM, first compound 3.16 µM
[24] = second compound 1 µM, first compound 10 µM
[25] = second compound 3.16 µM, first compound 0.0316 µM
[26] = second compound 3.16 µM, first compound 0.1 µM
[27] = second compound 3.16 µM, first compound 0.316 µM
[28] = second compound 3.16 µM, first compound 1 µM
[29] = second compound 3.16 µM, first compound 3.16 µM
[30] = second compound 3.16 µM, first compound 10 µM
[31] = second compound 10 µM, first compound 0.0316 µM
[32] = second compound 10 µM, first compound 0.1 µM
[33] = second compound 10 µM, first compound 0.316 µM
[34] = second compound 10 µM, first compound 1 µM
[35] = second compound 10 µM, first compound 3.16 µM
[36] = second compound 10 µM, first compound 10 µM
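Also: spheroids exposed to drugs for seven days.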
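For viability, T/C in this document: 100% = DMSO vehicle control viability.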

Structure (SMILES): C=CCn1c(=O)c2cnc(Nc3ccc(N4CCN(C)CC4)cc3)nc2n1-c1cccc(C(C)(C)O)n1 + Cc1[nH]c2ccc(F)cc2c1-c1nc2c3cccnc3c3ncccc3c2[nH]1
- pIC50 (second compound 0.0316 µM): < 5.00
- pIC50 (second compound 0.1 µM): < 5.00
- pIC50 (second compound 0.316 µM): < 5.00
- pIC50 (second compound 1 µM): 6.98
- pIC50 (second compound 3.16 µM): > 7.50
- pIC50 (second compound 10 µM): > 7.50
- viability, T/C [1]: 98.8%
- viability, T/C [2]: 86.5%
- viability, T/C [3]: 71.4%
- viability, T/C [4]: 67.8%
- viability, T/C [5]: 66.8%
- viability, T/C [6]: 66.6%
- viability, T/C [7]: 79.6%
- viability, T/C [8]: 79.5%
- viability, T/C [9]: 64.5%
- viability, T/C [10]: 48.3%
- viability, T/C [11]: 61%
- viability, T/C [12]: 52.7%
- viability, T/C [13]: 64%
- viability, T/C [14]: 58.4%
- viability, T/C [15]: 60.2%
- viability, T/C [16]: 41.1%
- viability, T/C [17]: 56.9%
- viability, T/C [18]: 61.4%
- viability, T/C [19]: 53.8%
- viability, T/C [20]: 53.9%
- viability, T/C [21]: 48%
- viability, T/C [22]: 36.4%
- viability, T/C [23]: 51.7%
- viability, T/C [24]: 50.4%
- viability, T/C [25]: 16.3%
- viability, T/C [26]: 14%
- viability, T/C [27]: 28.1%
- viability, T/C [28]: 18.1%
- viability, T/C [29]: 20.2%
- viability, T/C [30]: 23.9%
- viability, T/C [31]: 36.8%
- viability, T/C [32]: 35.8%
- viability, T/C [33]: 32.8%
- viability, T/C [34]: 26.7%
- viability, T/C [35]: 30.3%
- viability, T/C [36]: 35.4%

Structure (SMILES): CC(C)(O)C1CCC(Nc2ccc3ncc(-c4cccc(C(F)(F)F)c4)n3n2)CC1 (stereo unspecified) + Cc1[nH]c2ccc(F)cc2c1-c1nc2c3cccnc3c3ncccc3c2[nH]1
- pIC50 (second compound 0.0316 µM): 5.67
- pIC50 (second compound 0.1 µM): 6.04
- pIC50 (second compound 0.316 µM): 6.25
- pIC50 (second compound 1 µM): > 7.50
- pIC50 (second compound 3.16 µM): > 7.50
- pIC50 (second compound 10 µM): > 7.50
- viability, T/C [1]: 78.5%
- viability, T/C [2]: 68.9%
- viability, T/C [3]: 72.2%
- viability, T/C [4]: 54.3%
- viability, T/C [5]: 46.7%
- viability, T/C [6]: 48.8%
- viability, T/C [7]: 73.3%
- viability, T/C [8]: 71%
- viability, T/C [9]: 75.6%
- viability, T/C [10]: 48.2%
- viability, T/C [11]: 42.2%
- viability, T/C [12]: 43.7%
- viability, T/C [13]: 56.8%
- viability, T/C [14]: 61%
- viability, T/C [15]: 64.2%
- viability, T/C [16]: 39%
- viability, T/C [17]: 34.8%
- viability, T/C [18]: 40.9%
- viability, T/C [19]: 46.4%
- viability, T/C [20]: 39.4%
- viability, T/C [21]: 40%
- viability, T/C [22]: 25.2%
- viability, T/C [23]: 26.6%
- viability, T/C [24]: 24.5%
- viability, T/C [25]: 17.1%
- viability, T/C [26]: 14.1%
- viability, T/C [27]: 17.6%
- viability, T/C [28]: 16.2%
- viability, T/C [29]: 10.1%
- viability, T/C [30]: 7.57%
- viability, T/C [31]: 39.4%
- viability, T/C [32]: 38%
- viability, T/C [33]: 33.9%
- viability, T/C [34]: 30.9%
- viability, T/C [35]: 13.7%
- viability, T/C [36]: 10.8%

Structure (SMILES): CCCS(=O)(=O)Nc1ccc(F)c(C(=O)c2c[nH]c3ncc(-c4ccc(Cl)cc4)cc23)c1F + Cc1[nH]c2ccc(F)cc2c1-c1nc2c3cccnc3c3ncccc3c2[nH]1
- pIC50 (second compound 0.0316 µM): < 5.00
- pIC50 (second compound 0.1 µM): < 5.00
- pIC50 (second compound 0.316 µM): < 5.00
- pIC50 (second compound 1 µM): > 7.50
- pIC50 (second compound 3.16 µM): > 7.50
- pIC50 (second compound 10 µM): > 7.50
- viability, T/C [1]: 99.6%
- viability, T/C [2]: 82.8%
- viability, T/C [3]: 83.3%
- viability, T/C [4]: 101%
- viability, T/C [5]: 78.8%
- viability, T/C [6]: 50.8%
- viability, T/C [7]: 95.7%
- viability, T/C [8]: 81.7%
- viability, T/C [9]: 80.7%
- viability, T/C [10]: 78.5%
- viability, T/C [11]: 59.7%
- viability, T/C [12]: 61.2%
- viability, T/C [13]: 74.3%
- viability, T/C [14]: 71.2%
- viability, T/C [15]: 63.9%
- viability, T/C [16]: 65.3%
- viability, T/C [17]: 55%
- viability, T/C [18]: 61.9%
- viability, T/C [19]: 52.9%
- viability, T/C [20]: 41.3%
- viability, T/C [21]: 44.2%
- viability, T/C [22]: 50.1%
- viability, T/C [23]: 61.9%
- viability, T/C [24]: 37.7%
- viability, T/C [25]: 18.2%
- viability, T/C [26]: 12.9%
- viability, T/C [27]: 27.3%
- viability, T/C [28]: 15.5%
- viability, T/C [29]: 20.9%
- viability, T/C [30]: 13.1%
- viability, T/C [31]: 31.9%
- viability, T/C [32]: 35.4%
- viability, T/C [33]: 42.6%
- viability, T/C [34]: 30.3%
- viability, T/C [35]: 41.4%
- viability, T/C [36]: 27.5%
